Experimental findings from patent publication US20160159816A1, “SUBSTITUTED THIENOPYRIMIDINES AND PHARMACEUTICAL USE THEREOF” (BAYER PHARMA AKTIENGESELLSCHAFT, priority 2013, published 2016) are described below.

The structures appear in SMILES notation.

The target in this test is T1, human full-length MKNK1 (Homo sapiens, UniProt Q9BUB5, T385D).
T1 construct: GST (N); purchased Carna Biosciences 02-145; host or cells: insect cells, baculovirus expression system
T1 sequence (Q9BUB5 1-424 isoform Q9BUB5-2 T344D): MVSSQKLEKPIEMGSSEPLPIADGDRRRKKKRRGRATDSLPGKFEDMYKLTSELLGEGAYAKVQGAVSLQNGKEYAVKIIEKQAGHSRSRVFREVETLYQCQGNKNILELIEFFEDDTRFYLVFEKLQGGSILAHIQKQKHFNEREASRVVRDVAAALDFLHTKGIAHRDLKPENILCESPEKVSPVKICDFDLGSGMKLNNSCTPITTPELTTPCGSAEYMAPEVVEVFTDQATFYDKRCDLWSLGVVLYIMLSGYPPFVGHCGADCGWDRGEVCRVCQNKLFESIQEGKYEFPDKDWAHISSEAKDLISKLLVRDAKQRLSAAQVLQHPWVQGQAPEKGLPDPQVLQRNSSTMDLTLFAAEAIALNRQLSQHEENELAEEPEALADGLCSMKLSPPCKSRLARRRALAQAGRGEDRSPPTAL
Briefly: MKNK1 kinase high ATP assay (TR-FRET). In kind it is biochemical. The note with it: high ATP (2 mM), after preincubation with MKNK1; compounds of the present invention (Table 1a). In a few lines: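 GST-tagged full-length human MKNK1 pre-incubated 15 min with compound, then reacted 30 min at 22 °C with 2 mM ATP and 0.06 μM biotinylated peptide substrate (pH 7.5). Phospho-peptide detected by TR-FRET (665/620 nm ratio); normalised to no-inhibitor and no-enzyme controls.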
Turning to `COc1cc2[nH]ncc2cc1Nc1ncnc2sc3c(c12)CC[C@](C)(C(=O)N1CCC1)C3` [Example 60, (7S) Azetidin-1-yl{(7S)-4-[(6-methoxy-1H-indazol-5-yl)amino]-7-methyl-5,6,7,8-tetrahydro[1]benzothieno[2,3-d]pyrimidin-7-yl}methanone], the IC50 (usually the concentration that inhibits the measured activity by half) was 3.7 nM.

Turning to `COc1cc2[nH]ncc2cc1Nc1ncnc2sc3c(c12)CC[C@@](C)(C(=O)N1CCC1)C3` [Example 61, (7R) Azetidin-1-yl{(7S)-4-[(6-methoxy-1H-indazol-5-yl)amino]-7-methyl-5,6,7,8-tetrahydro[1]benzothieno[2,3-d]pyrimidin-7-yl}methanone], the concentration for half-maximal inhibition (IC50) was found to be 11.7 nM. Against the preceding compound, the IC50 is about 3.2-fold higher.

Consider `CC[C@@]1(C(=O)N2CCOCC2)CCc2c(sc3ncnc(Nc4cc5cn[nH]c5cc4OC)c23)C1` [Example 62, (7R) {7-Ethyl-4-[(6-methoxy-1H-indazol-5-yl)amino]-5,6,7,8-tetrahydro[1]benzothieno[2,3-d]pyrimidin-7-yl}(morpholin-4-yl)methanone], for which it took 31.7 nM to reach half-maximal inhibition (IC50).

In the case of `CC[C@]1(C(=O)N2CCOCC2)CCc2c(sc3ncnc(Nc4cc5cn[nH]c5cc4OC)c23)C1` [Example 63, (7S) {7-Ethyl-4-[(6-methoxy-1H-indazol-5-yl)amino]-5,6,7,8-tetrahydro[1]benzothieno[2,3-d]pyrimidin-7-yl}(morpholin-4-yl)methanone], 1.8 nM corresponded to half-maximal inhibition (IC50).

The compound `CC[C@@]1(C(=O)N(C)CCOC)CCc2c(sc3ncnc(Nc4cc5cn[nH]c5cc4OC)c23)C1` [Example 64, (7R) 7-Ethyl-N-(2-methoxyethyl)-4-[(6-methoxy-1H-indazol-5-yl)amino]-N-methyl-5,6,7,8-tetrahydro[1]benzothieno[2,3-d]pyrimidine-7-carboxamide] showed an IC50 of 26.3 nM.

The compound `CC[C@]1(C(=O)N(C)CCOC)CCc2c(sc3ncnc(Nc4cc5cn[nH]c5cc4OC)c23)C1` [Example 65, (7S) 7-Ethyl-N-(2-methoxyethyl)-4-[(6-methoxy-1H-indazol-5-yl)amino]-N-methyl-5,6,7,8-tetrahydro[1]benzothieno[2,3-d]pyrimidine-7-carboxamide] registered a concentration for half-maximal inhibition (IC50) of 3 nM.

In the case of `CC[C@@]1(C(=O)N(C)OC)CCc2c(sc3ncnc(Nc4cc5cn[nH]c5cc4OC)c23)C1` [Example 66, (7R) 7-Ethyl-N-methoxy-4-[(6-methoxy-1H-indazol-5-yl)amino]-N-methyl-5,6,7,8-tetrahydro[1]benzothieno[2,3-d]pyrimidine-7-carboxamide], the concentration for half-maximal inhibition (IC50) worked out at 20.4 nM. This IC50 is about 6.8-fold higher than that of the compound before.

The compound `CC[C@]1(C(=O)N(C)OC)CCc2c(sc3ncnc(Nc4cc5cn[nH]c5cc4OC)c23)C1` [Example 67, (7S) 7-Ethyl-N-methoxy-4-[(6-methoxy-1H-indazol-5-yl)amino]-N-methyl-5,6,7,8-tetrahydro[1]benzothieno[2,3-d]pyrimidine-7-carboxamide] registered an IC50 of 1.8 nM.

`CC[C@@]1(C(=O)N2CCC2)CCc2c(sc3ncnc(Nc4cc5cn[nH]c5cc4OC)c23)C1` [Example 68, (7R) Azetidin-1-yl{(7S)-7-ethyl-4-[(6-methoxy-1H-indazol-5-yl)amino]-5,6,7,8-tetrahydro[1]benzothieno[2,3-d]pyrimidin-7-yl}methanone] yielded an IC50 of 24.6 nM.

The compound `CC[C@]1(C(=O)N2CCC2)CCc2c(sc3ncnc(Nc4cc5cn[nH]c5cc4OC)c23)C1` [Example 69, (7S) Azetidin-1-yl{(7S)-7-ethyl-4-[(6-methoxy-1H-indazol-5-yl)amino]-5,6,7,8-tetrahydro[1]benzothieno[2,3-d]pyrimidin-7-yl}methanone] returned a concentration for half-maximal inhibition (IC50) of 3.4 nM.

`CC[C@@]1(C(=O)N2C[C@@H](C)O[C@@H](C)C2)CCc2c(sc3ncnc(Nc4cc5cn[nH]c5cc4OC)c23)C1` [Example 70, (7R) [(2R,6S)-2,6-Dimethylmorpholin-4-yl]{7-ethyl-4-[(6-methoxy-1H-indazol-5-yl)amino]-5,6,7,8-tetrahydro[1]benzothieno[2,3-d]pyrimidin-7-yl}methanone] gave an IC50 of 50.9 nM. This IC50 lies about 15-fold higher than the previous one.

Compound `CC[C@]1(C(=O)N2C[C@@H](C)O[C@@H](C)C2)CCc2c(sc3ncnc(Nc4cc5cn[nH]c5cc4OC)c23)C1` [Example 71, (7S) [(2R,6S)-2,6-Dimethylmorpholin-4-yl]{7-ethyl-4-[(6-methoxy-1H-indazol-5-yl)amino]-5,6,7,8-tetrahydro[1]benzothieno[2,3-d]pyrimidin-7-yl}methanone] yielded a half-maximal inhibitory concentration (IC50) of 1.6 nM.

Compound `CC[C@@]1(C(=O)N(C)C(C)C)CCc2c(sc3ncnc(Nc4cc5cn[nH]c5cc4OC)c23)C1` [Example 72, (7R) 7-Ethyl-N-isopropyl-4-[(6-methoxy-1H-indazol-5-yl)amino]-N-methyl-5,6,7,8-tetrahydro[1]benzothieno[2,3-d]pyrimidine-7-carboxamide] showed an IC50 of 38.4 nM. Compared with the last compound, the IC50 is about 24-fold higher.

The compound `CC[C@]1(C(=O)N(C)C(C)C)CCc2c(sc3ncnc(Nc4cc5cn[nH]c5cc4OC)c23)C1` [Example 73, (7S) 7-Ethyl-N-isopropyl-4-[(6-methoxy-1H-indazol-5-yl)amino]-N-methyl-5,6,7,8-tetrahydro[1]benzothieno[2,3-d]pyrimidine-7-carboxamide] came in with an IC50 of 1.4 nM.

In turn, `CC[C@]1(C(=O)N2CCOC[C@H]2C)CCc2c(sc3ncnc(Nc4cc5cn[nH]c5cc4OC)c23)C1` [Example 75, {(7S)-7-Ethyl-4-[(6-methoxy-1H-indazol-5-yl)amino]-5,6,7,8-tetrahydro[1]benzothieno[2,3-d]pyrimidin-7-yl}[(3R)-3-methylmorpholin-4-yl]methanone] returned an IC50 of 20.6 nM.
